This is an account of results in PubChem BioAssay AID720577 (The Scripps Research Institute Molecular Screening Center, 2013).

The source made the active and inactive calls. The rule behind the calls is not given here. A value given as a limit tells only on which side of the number the result lay.

This experiment addresses CCHF virus vOTU protease domain (L polyprotein). Briefly: CCHF virus vOTU protease inhibition, Pep AMC substrate counterscreen, fluorescence, confirmatory IC50 (AID 720577). Conditions: purified vOTU. On the technique in general: Counterscreens check selectivity or assay interference.
Turning to `Cc1ccc(NC2=C/C(=N/S(=O)(=O)c3cccs3)c3ccccc3C2=O)cc1`, the IC50 is 1.79 µM.
Take `Cc1cnc(C2OCCO2)c2cccc(N)c12`: the 50% inhibitory concentration (IC50) is 5.37 µM.
Under `S=C(Nc1ccc2nsnc2c1)N1CCCCCC1` stands “inactive”.
On to `COC(CNC(=O)c1ccc2c3c(onc13)-c1ccccc1C2=O)OC`, for which the IC50 result was “inactive”.
As for `CC(C)C[C@H](NC(=O)c1[nH]cnc1C(=O)N[C@@H](C)C(=O)OC(C)(C)C)C(=O)OC(C)(C)C`, the IC50 result is “inactive”.
In the case of `C=CCN1C=CC(=C/C=C(/C#N)C(=O)OCC)C=C1` it was “inactive”; in that of `Cc1nc2c(o1)C(=O)c1ccccc1C2=Nc1ccccc1`, “inactive”; in that of `CN(C1=C(NC(=O)c2ccccc2)C(=O)c2ccccc2C1=O)C1CCS(=O)(=O)C1` (configuration not stated), 9.59 µM.
Under `COc1ccc(C(C[N+](=O)[O-])c2c(C)[nH]n(-c3ccccc3)c2=O)cc1` (configuration not stated) stands > 115 µM (inactive); under `S=C(Nc1ccc(Cl)cc1)Nc1cccc2cnccc12`, 8.74 µM.
Under `CC1(C)C=C2C(=NN(c3ccccc3)C(N)=C2C#N)CO1` stands “inactive”.
Consider `CC1=C(SCc2ccccc2)C(=O)c2ccccc2C1=O`, for which the half-inhibitory concentration (IC50) is 9.91 µM.
Take `O=C1NC(c2ccc(-c3ccccc3[N+](=O)[O-])o2)C(C(=O)c2ccc(Cl)cc2)C(O)(C(F)(F)F)N1` (configuration not stated): the IC50 entry is “inactive”.
In the case of `Cc1ccc(N2C(=O)[C@@H]3[C@H](C2=O)C2c4ccccc4C=CN2[C@@H]3C(=O)c2ccco2)cc1` (some centres not stated), the IC50 is 5.2 µM.
Under `O=C(NC(=S)Nc1ccccc1N1CCCC1)c1ccccc1Br` stands > 115 µM (inactive); under `O=C(c1ccccc1)c1coc2c1C(=O)c1ccccc1C2=O`, “inactive”.
Under `O=C1C=C(O)c2[nH]c(=O)ccc2C1=O` stands “inactive”.
In the case of `CC(=O)c1ccc(NC(=S)Nc2cccc3cnccc23)cc1` it was 7.69 µM; in that of `COc1cc(C=c2c3ccccc3n3c2cc(-c2ccccc2)[n+]3C)cc(OC)c1OC`, 5.77 µM; in that of `O=C(O)CSc1cc(NS(=O)(=O)c2ccc(Br)cc2)c2ccccc2c1O`, “inactive”.
As for `O=C(NC(=S)Nc1ccccc1N1CCCC1)c1ccc(F)cc1`, the IC50 was > 115 µM (inactive).
In the case of `O=C1C(=O)c2ccccc2-c2ccccc21` it was 3.75 µM; in that of `COc1cc(NC(C)CCCN)c2ncccc2c1` (configuration not stated), “inactive”.
For the compound `CN(C)c1ccc(C=c2c3cc(O)ccc3n3c2cc(-c2ccccc2)[n+]3C)cc1`, the IC50 was 4.33 µM.
On to `Cc1c(Cl)cnc(NC(=O)COC(=O)c2ccc([N+](=O)[O-])s2)c1Cl`, for which the IC50 entry is “inactive”.
In the case of `CN1/C(=C\C=C2C(=O)NC(=O)NC2=O)C(C)(C)c2ccccc21`, the IC50 result is “inactive”.
Under `NC1=CC(=O)C(=O)c2cccnc21` stands 4.94 µM; under `COc1ccc(/C=N/NC(=O)c2nn(-c3ccc(Cl)cc3)c(=O)c3c(N)scc23)cc1`, “inactive”; under `CC(=O)c1ccc(NC2=C(N3CCOCC3)C(=O)c3ccccc3C2=O)cc1`, “inactive”.
Under `CCOC(=O)C1CCN(C(=O)c2c(C)oc3c2C(=O)c2ccccc2C3=O)CC1` stands “inactive”; under `Cc1oc2c(c1C(=O)N1CCOCC1)C(=O)c1ccccc1C2=O`, “inactive”.
In the case of `COc1cc2c(cc1OC)-c1c(OC)c(OC)cc3c1C(C2)N(C)CC3` (configuration not stated) it was > 115 µM (inactive); in that of `O=[N+]([O-])c1c(Nc2ccccn2)cc(Cl)c2nonc12`, “inactive”.
As to `CC(=O)NC1=C(N(C)C2CCS(=O)(=O)C2)C(=O)c2ccccc2C1=O` (configuration not stated), the IC50 result was “inactive”.
For the compound `Oc1c(N=Nc2nn[nH]n2)ccc2ccccc12`, the IC50 entry is “inactive”.
In the case of `CC1OC2CC(=O)OC2C2=C1C(=O)c1c(O)cccc1C2=O` (configuration not stated) it was “inactive”.
In the case of `C[n+]1cccc2cccc([O-])c21`, the IC50 entry is “inactive”.
In the case of `COc1ccc(NC(=S)Nc2ccc3nsnc3c2)cc1` it was 6.9 µM.
Under `CNc1ccc2nc3ccccc3[n+](C)c2c1` stands “inactive”; under `COc1cc2c(cc1O)[C@@H]1Cc3ccc(OC)c(O)c3CN1CC2`, “inactive”; under `O=[N+]([O-])c1ccccc1-c1ccc(C(=S)N2CCCC2)o1`, “inactive”.
As to `CCOc1ccc(NC(=S)Nc2ccc3nsnc3c2)cc1`, the IC50 result was “inactive”.
Under `O=C1C(Cl)=C(NCCCO)C(=O)c2ccccc21` stands “inactive”; under `COc1ccc(N2C(=O)[C@@H]3[C@H](C2=O)[C@H]2c4ccccc4C=CN2[C@@H]3C(C)=O)cc1`, “inactive”; under `Cc1ccccc1NC1=C/C(=N\S(=O)(=O)c2ccc(C(=O)O)cc2)c2ccccc2C1=O`, 0.536 µM.
In the case of `COc1ccc(/C=N/NC(=O)c2nn(-c3ccccc3)c(=O)c3c(N)scc23)cc1` it was “inactive”.
In the case of `CC(=O)Nc1ccc(S(=O)(=O)NC2=C(N3CCN(c4ccc(F)cc4)CC3)C(=O)c3ccccc3C2=O)cc1` it was “inactive”; in that of `O=S(=O)(Nc1cc2nc3ccccc3nc2n1Cc1ccccc1)c1ccc(Cl)cc1`, 7.6 µM.
Take `CCCCn1c(NS(=O)(=O)c2ccccc2)c(S(=O)(=O)c2ccc(C)cc2)c2nc3ccccc3nc21`: the IC50 is > 115 µM (inactive).
In the case of `CCC(CNc1cc(OC)cc2cccnc12)NC1CCCCC1` (configuration not stated) it was 6.96 µM.
In the case of `CCC(C)n1c(NC(=O)c2ccccc2)c(C#N)c2nc3ccccc3nc21` (configuration not stated) it was > 12.7 µM (inactive).
In the case of `CCc1cc[n+](C2=C([O-])c3ccccc3C(=O)/C2=N\S(=O)(=O)c2cccs2)cc1` it was “inactive”; in that of `CC(C)(C)c1cc[n+](C2=C([O-])c3ccccc3C(=O)/C2=N\S(=O)(=O)c2cccs2)cc1`, “inactive”; in that of `CC(NC1=CC(=O)c2cccnc2C1=O)C(O)c1ccccc1` (configuration not stated), 4.33 µM.
For `O=c1[nH]c(=S)[nH]c2c1C(c1ccc(Br)cc1)c1c([nH]c(=S)[nH]c1=O)O2`, the IC50 entry was “inactive”.
In the case of `O=C(COC(=O)c1ccc([N+](=O)[O-])s1)NCc1ccc(F)cc1` it was “inactive”; in that of `COc1ccccc1N=Nc1c(O)[nH]c(=S)[nH]c1=O`, “inactive”; in that of `COCCN1C=C2C(=O)C(C)(OC(=O)C3CCCC3)C(=O)C(c3ccccc3)=C2C=C1CCCC(=O)OC` (configuration not stated), “inactive”.
In the case of `COc1ccc(CNC(=O)c2c(C)oc3c2C(=O)c2ccccc2C3=O)cc1` it was “inactive”; in that of `NS(=O)(=O)c1ccc(NC(=O)COC(=O)c2ccc([N+](=O)[O-])s2)cc1`, “inactive”.
Regarding `Cc1ccc2c(c1C)-c1c(ccc(C)c1C)C(=O)C2=O`, the IC50 result is “inactive”.
As to `O=C1Cc2ccccc2C(=O)N1CCc1ccccc1`, the IC50 is 1.51 µM.
Take `O=C1C(=NO)CCc2ccccc21`: the IC50 result was “inactive”.
Turning to `O=C(COC(=O)c1ccc([N+](=O)[O-])s1)Nc1ncc(C(F)(F)F)cc1Cl`, the IC50 result was “inactive”.
`Clc1ccc(C2=CSC3=Nc4cccc5cccc(c45)N23)cc1`: the IC50 entry was “inactive”.
In the case of `O=C(COC(=O)c1ccc([N+](=O)[O-])s1)Nc1ccccc1` it was “inactive”; in that of `O=C1Nc2ccc([N+](=O)[O-])cc2C1=Nc1cccc(CO)c1`, “inactive”.
For `O=C(c1ccco1)[C@@H]1[C@@H]2C(=O)N(c3ccc(Br)cc3)C(=O)[C@@H]2C2c3ccccc3C=CN21` (some centres not stated), the IC50 entry is “inactive”.
Take `CCCCCCCCCCOC(=O)Cn1c(COc2ccc(Cl)cc2)[n+](C)c2ccccc21`: the IC50 was 6.42 µM.
In the case of `C[n+]1c(-c2ccccc2)cc2c(=Cc3ccc([N+](=O)[O-])cc3)c3ccccc3n21` it was 4.14 µM.
In the case of `Cc1cc2c(cc1C)C(=O)C(Br)=C(N)C2=O` it was “inactive”.
For the compound `CCOC(=O)C1=C(COC(=O)c2ccc([N+](=O)[O-])s2)NC(=O)NC1C` (configuration not stated), the IC50 result is “inactive”.
Take `CCCCCCCCCCCCN1[C@@H](CC(=O)O)c2cc(F)ccc2S1(=O)=O`: the IC50 result is “inactive”.
Under `O=S(=O)(Nc1c(S(=O)(=O)c2ccccc2)c2nc3ccccc3nc2n1C1CCCCC1)c1ccccc1` stands > 115 µM (inactive); under `c1coc(-c2nnc(-c3ccco3)nn2)c1`, “inactive”.
Under `O=C1C=C(Nc2ccccc2C(=O)O)c2ccccc2C1=O` stands 7.39 µM; under `CCC(COC)Oc1cc(NCc2ccccc2)c2ncn(C(C)C)c2c1` (configuration not stated), “inactive”.
In the case of `CCCCCCCCCCCCCCCCn1cc[n+](C)c1` it was 7.06 µM; in that of `Cc1ccc(NC2=C(N3CCOCC3)C(=O)c3ccccc3C2=O)cc1`, “inactive”.
On to `Cc1ccc(Cl)cc1NC1=C/C(=N\S(=O)(=O)c2cccs2)c2ccccc2C1=O`, for which the IC50 was 2.37 µM.
Under `CCc1ccc(S(=O)(=O)/N=C2\C=C(Nc3cccc(C(=O)O)c3)C(=O)c3ccccc32)cc1` stands 2.51 µM.
On to `O=C1C(N2CCOCC2)=C(n2nnc3ccccc32)C(=O)c2ccccc21`, for which the IC50 is 6.3 µM.
In the case of `Cc1ccc(NC2=C(N3CCCCC3)C(=O)c3ccccc3C2=O)cc1` it was “inactive”; in that of `O=C(O)CSc1cc(NS(=O)(=O)c2cccc([N+](=O)[O-])c2)c2ccccc2c1O`, 7.61 µM; in that of `NC1=C(Cl)C(=O)c2ccc(S(N)(=O)=O)cc2C1=O`, 0.387 µM.
Under `O=S(=O)(Nc1cc(Sc2ncn[nH]2)c(O)c2ccccc12)c1ccccc1` stands 2.16 µM.
`NS(=O)(=O)c1ccc(NC2=CC(=O)C(=O)c3ccccc32)cc1`: the IC50 entry was “inactive”.
As for `C=CCN1C(=O)/C(=C/c2ccc(OC(C)=O)c(OCC)c2[N+](=O)[O-])SC1=S`, the IC50 result was “inactive”.
On to `CC(=O)N(/N=C1\Sc2ccccc2C1=O)c1cccc(C)c1`, for which the IC50 result was “inactive”.
In the case of `Cc1ccc(S(=O)(=O)/N=C2\C=C(Nc3cccc(C(=O)O)c3)C(=O)c3ccccc32)c(C)c1` it was 2.36 µM; in that of `CCOCCCNC1=C(Cl)C(=O)c2ccccc2C1=O`, “inactive”; in that of `O=C(O)CCCNc1cc(N2CCN(C(=O)c3ccco3)CC2)c2noc3c2c1C(=O)c1ccccc1-3`, “inactive”.

A word on the IC50: it is the concentration that inhibits the measured activity by half.
